pIC50: −log10 of the molar value.
Tested on: Endogenous Huntingtin Protein
Test: Endogenous Huntingtin Protein Assay (Meso Scale Discovery ELISA-based electrochemiluminescence)
Type: cell-based
Details: MSD plates coated with MW1 (expanded polyglutamine) or MAB2166 capture antibody; lysates
Experimental: Compounds of Formula (I) were tested using the Meso Scale Discovery (MSD) Assay provided in International Application No. PCT/US2016/066042, filed on Dec. 11, 2016 and claiming priority to United States Provisional Application U.S. 62/265,652 filed on Dec. 10, 2015, the entire contents of which are incorporated herein by reference.
The Endogenous Huntingtin Protein assay used in Example 1 was developed using the ELISA-based MSD electrochemiluminescence assay platform.
Endogenous Huntingtin Protein Assay
Meso Scale Discovery (MSD) 96-well or 384-well plates were coated overnight at 4° C. with MW1 (expanded polyglutamine) or MAB2166 monoclonal antibody (for capture) at a concentration of 1 μg/mL in PBS (30 μL per well). Plates were then washed three times with 300 μL wash buffer (0.05% Tween-20 in PBS) and blocked (100 μL blocking buffer; 5% BSA in PBS) for 4-5 hours at room temperature with rotational shaking and then washed three times with wash buffer.
Samples (25 μL) were transferred to the antibody-coated MSD plate and incubated overnight at 4° C. After removal of the lysates, the plate was washed three times with wash buffer, and 25 μL of #5656S (Cell signaling; rabbit monoclonal) secondary antibody (diluted to 0.25 μg/mL in 0.05% Tween-20 in blocking buffer) was added to each well and incubated with shaking for 1 Hour at room temperature. Following incubation with the secondary antibody, the wells were rinsed with wash buffer after which 25 μL of goat anti-rabbit SULFO TAG secondary detection antibody (required aspect of the MSD system) (diluted to 0.25 μg/mL in 0.05% Tween-20 in blocking buffer) was added to each well and incubated with shaking for 1 hour at room temperature. After rinsing three times with wash buffer, 150 μL of read buffer T with surfactant (MSD) were added to each empty well, and the plate was imaged on a SI 6000 imager (MSD) according to manufacturers' instructions provided for 96- or 384-well plates.

With `Oc1cc(-c2cn[nH]c2)ccc1-c1cc2scc(C3=CCNCC3)c2nn1` [Cpd 15, 5-(1H-pyrazol-4-yl)-2-[7-(1,2,3,6-tetrahydropyridin-4-yl)thieno[3,2-c]pyridazin-3-yl]phenol] the pIC50 was 5.52 to 6.00.
Work on `Cc1ncc(-c2ccc(-c3cc4nnn(C5CC(C)(C)NC(C)(C)C5)c4nn3)c(O)c2)o1` [Cpd 158, 5-(2-methyl-1,3-oxazol-5-yl)-2-[3-(2,2,6,6-tetramethylpiperidin-4-yl)-3H-[1,2,3]triazolo[4,5-c]pyridazin-6-yl]phenol] yielded a pIC50 of no less than 7.00.
`CC1(C)CC(n2nnc3cc(-c4ccc(-c5cnccn5)cc4O)nnc32)CC(C)(C)N1` [Cpd 60, 5-(pyrazin-2-yl)-2-[3-(2,2,6,6-tetramethylpiperidin-4-yl)-3H-[1,2,3]triazolo[4,5-c]pyridazin-6-yl]phenol] showed a pIC50 of 5.52 to 6.00.
With `Oc1cc(-c2cn[nH]c2)ccc1-c1cc2scc(C3=CC4CCC(C3)N4)c2nn1` (stereo not drawn) [Cpd 18, 2-[7-(8-azabicyclo[3.2.1]oct-2-en-3-yl)thieno[3,2-c]pyridazin-3-yl]-5-(1H-pyrazol-4-yl)phenol] the pIC50 was no less than 7.00.
For `Cn1ccc(-c2ccc(-c3cc4nnn([C@H]5CC(C)(C)NC(C)(C)[C@H]5F)c4nn3)c(O)c2)cc1=O` [Cpd 171, 4-(4-{3-[(3S,4S)-3-fluoro-2,2,6,6-tetramethylpiperidin-4-yl]-3H-[1,2,3]triazolo[4,5-c]pyridazin-6-yl}-3-hydroxyphenyl)-1-methylpyridin-2(1H)-one], the pIC50 was 6.30 to 7.00.
Compound `CC1(C)CC(n2nnc3cc(-c4ccc(-c5ccnc(OC(F)F)c5)cc4O)nnc32)CC(C)(C)N1` [Cpd 114, 5-[2-(difluoromethoxy)pyridin-4-yl]-2-[3-(2,2,6,6-tetramethylpiperidin-4-yl)-3H-[1,2,3]triazolo[4,5-c]pyridazin-6-yl]phenol] has a pIC50 of 5.52 to 6.00.
For `CC1(C)CC(n2nnc3cc(-c4ccc(-c5cncs5)cc4O)nnc32)CC(C)(C)N1` [Cpd 107, 2-[3-(2,2,6,6-tetramethylpiperidin-4-yl)-3H-[1,2,3]triazolo[4,5-c]pyridazin-6-yl]-5-(1,3-thiazol-5-yl)phenol], the pIC50 was no less than 7.00.
Compound `Cn1cc(-c2ccc(-c3cc4cnn(C5CC(C)(C)NC(C)(C)C5)c4nn3)c(O)c2)cn1` [Cpd 98, 5-(1-methyl-1H-pyrazol-4-yl)-2-[1-(2,2,6,6-tetramethylpiperidin-4-yl)-1H-pyrazolo[3,4-c]pyridazin-5-yl]phenol] has a pIC50 of no less than 7.00.
`Cn1ncc(-c2ccc(-c3cc4nnn(C5CC(C)(C)NC(C)(C)C5)c4nn3)c(O)c2)n1` [Cpd 151, 5-(2-methyl-2H-1,2,3-triazol-4-yl)-2-[3-(2,2,6,6-tetramethylpiperidin-4-yl)-3H-[1,2,3]triazolo[4,5-c]pyridazin-6-yl]phenol] was tested, and the pIC50 was no less than 7.00.
With `CC1(C)CC(n2nnc3cc(-c4ccc(-c5cc(=O)[nH]cn5)cc4O)nnc32)CC(C)(C)N1` [Cpd 128, 6-{3-hydroxy-4-[3-(2,2,6,6-tetramethylpiperidin-4-yl)-3H-[1,2,3]triazolo[4,5-c]pyridazin-6-yl]phenyl}pyrimidin-4(3H)-one] the pIC50 was no less than 7.00.
For `CCn1ncc(-c2ccc(-c3cc4nnn(C5CC(C)(C)NC(C)(C)C5)c4nn3)c(O)c2)c1F` [Cpd 122, 5-(1-ethyl-5-fluoro-1H-pyrazol-4-yl)-2-[3-(2,2,6,6-tetramethylpiperidin-4-yl)-3H-[1,2,3]triazolo[4,5-c]pyridazin-6-yl]phenol], the pIC50 was 5.52 to 6.00.
`CC1(C)CC(n2nnc3cc(-c4cc(O)c(-c5cn[nH]c5)cc4O)nnc32)CC(C)(C)N1` [Cpd 58, 2-(1H-pyrazol-4-yl)-5-[3-(2,2,6,6-tetramethylpiperidin-4-yl)-3H-[1,2,3]triazolo[4,5-c]pyridazin-6-yl]benzene-1,4-diol] showed a pIC50 of 6.30 to 7.00.
`CC1(C)CC(c2c[nH]c3cc(-c4ccc(-c5cn[nH]c5)cc4O)nnc23)CC(C)(C)N1` [Cpd 31, 5-(1H-pyrazol-4-yl)-2-[7-(2,2,6,6-tetramethylpiperidin-4-yl)-5H-pyrrolo[3,2-c]pyridazin-3-yl]phenol] gave a pIC50 of no less than 7.00.
With `CC1(C)CC(n2nnc3cc(-c4ccc(-c5ccoc5)cc4O)nnc32)CC(C)(C)N1` [Cpd 95, 5-(furan-3-yl)-2-[3-(2,2,6,6-tetramethylpiperidin-4-yl)-3H-[1,2,3]triazolo[4,5-c]pyridazin-6-yl]phenol] the pIC50 was 6.30 to 7.00.
`Cc1ncc(-c2ccc(-c3cc4nnn(C5CC(C)(C)NC(C)(C)C5)c4nn3)c(O)c2)s1` [Cpd 150, 5-(2-methyl-1,3-thiazol-5-yl)-2-[3-(2,2,6,6-tetramethylpiperidin-4-yl)-3H-[1,2,3]triazolo[4,5-c]pyridazin-6-yl]phenol] showed a pIC50 of no less than 7.00.
In the case of `CNc1cc(-c2ccc(-c3cc4nnn(C5CC(C)(C)NC(C)(C)C5)c4nn3)c(O)c2)ccn1` [Cpd 104, 5-[2-(methylamino)pyridin-4-yl]-2-[3-(2,2,6,6-tetramethylpiperidin-4-yl)-3H-[1,2,3]triazolo[4,5-c]pyridazin-6-yl]phenol], the pIC50 was no less than 7.00.
Compound `CC1(C)CC(n2nnc3cc(-c4ccc(-c5cnc6cnccn56)cc4O)nnc32)CC(C)(C)N1` [Cpd 85, 5-(imidazo[1,2-a]pyrazin-3-yl)-2-[3-(2,2,6,6-tetramethylpiperidin-4-yl)-3H-[1,2,3]triazolo[4,5-c]pyridazin-6-yl]phenol] has a pIC50 of 5.52 to 6.00.
With `CC1(C)CC(n2cnc3cc(-c4ccc(-c5cn[nH]c5)cc4O)nnc32)CC(C)(C)N1` [Cpd 3, 5-(1H-pyrazol-4-yl)-2-[7-(2,2,6,6-tetramethylpiperidin-4-yl)-7H-imidazo[4,5-c]pyridazin-3-yl]phenol] the pIC50 was no less than 7.00.
In the case of `CCCn1cc(-c2ccc(-c3cc4nnn(C5CC(C)(C)NC(C)(C)C5)c4nn3)c(O)c2)cn1` [Cpd 47, 5-(1-propyl-1H-pyrazol-4-yl)-2-[3-(2,2,6,6-tetramethylpiperidin-4-yl)-3H-[1,2,3]triazolo[4,5-c]pyridazin-6-yl]phenol], the pIC50 was 5.52 to 6.00.
`CC1(C)CC(n2nnc3cc(-c4ccc(-c5cn[nH]c5)c(F)c4O)nnc32)CC(C)(C)N1` [Cpd 54, 2-fluoro-3-(1H-pyrazol-4-yl)-6-[3-(2,2,6,6-tetramethylpiperidin-4-yl)-3H-[1,2,3]triazolo[4,5-c]pyridazin-6-yl]phenol] was tested, and the pIC50 was no less than 7.00.
`CC1(C)CC(n2ncc3cc(-c4ccc(-c5cccnc5)cc4O)nnc32)CC(C)(C)N1` [Cpd 166, 5-(pyridin-3-yl)-2-[1-(2,2,6,6-tetramethylpiperidin-4-yl)-1H-pyrazolo[3,4-c]pyridazin-5-yl]phenol] was tested, and the pIC50 was 6.30 to 7.00.
`Cc1n[nH]cc1-c1ccc(-c2cc3nnn(C4CC(C)(C)NC(C)(C)C4)c3nn2)c(O)c1` [Cpd 108, 5-(3-methyl-1H-pyrazol-4-yl)-2-[3-(2,2,6,6-tetramethylpiperidin-4-yl)-3H-[1,2,3]triazolo[4,5-c]pyridazin-6-yl]phenol] was tested, and the pIC50 was no less than 7.00.
For `Cc1ccnn1-c1ccc(-c2cc3nnn(C4CC(C)(C)NC(C)(C)C4)c3nn2)c(O)c1` [Cpd 155, 5-(5-methyl-1H-pyrazol-1-yl)-2-[3-(2,2,6,6-tetramethylpiperidin-4-yl)-3H-[1,2,3]triazolo[4,5-c]pyridazin-6-yl]phenol], the pIC50 was 5.05 to 5.52.
In the case of `COc1nc2cc(-c3ccc(-c4cn[nH]c4)cc3O)nnc2n1C1CC(C)(C)NC(C)(C)C1` [Cpd 40, 2-[6-methoxy-7-(2,2,6,6-tetramethylpiperidin-4-yl)-7H-imidazo[4,5-c]pyridazin-3-yl]-5-(1H-pyrazol-4-yl)phenol], the pIC50 was 5.05 to 5.52.
